This note sets out measurements from patent US20150133456A1, “FLUOROERGOLINE DERIVATIVES AND USES THEREOF” (MAP PHARMACEUTICALS, INC., priority 2012, published 2015).

One data set concerns the target human 5-HT1D receptor (Homo sapiens, UniProt P28221). The experiment in a line: GTPγS agonist assay, 5-HT1D. The data set is classed as biochemical.
Another data set has as its target T1, D2 receptor (Homo sapiens, UniProt P14416).
T1 construct: expressed in transfected cells
The experiment in a line: Agonist activity at the D2 receptor. The data set is classed as cell-based. The settings on record: read-out: EC50, D2 receptor agonism. The procedure: The assay was performed analogously to the assay described in Example 4.

Data set [1] concerns NMDA (NR1/NR2A/NR2B/NR2C/NR2D). The experiment in a line: NMDA receptor Fluo-8 calcium FLIPR assay, agonist and antagonist. The following applies: NMDA channels in HEK293. In kind it is cell-based, human. On the procedure:
The following channels were evaluated: Cloned NMDA receptor (NR1/NR2A) channel (encoded by the GRIN1 and GRIN2A genes, coexpressed in HEK293 cells; Cloned NMDA receptor (NR1/NR2B) channel (encoded by the GRIN1 and GRIN2B genes, coexpressed in HEK293 cells; Cloned NMDA receptor (NR1/NR2C) channel (encoded by the GRIN1 and GRIN2C genes, coexpressed in HEK293 cells; and Cloned NMDA receptor (NR1/NR2D) channel (encoded by the GRIN1 and GRIN2D genes, transiently coexpressed in HEK293 cells.
For the agonist assessment, the effect of 2-CF3-DHE was evaluated in the absence of the positive control agonist. The signal, elicited in the presence of the agonist (100 μM Glutamic acid+20 μM Glycine), was set to 100% activation and the signal in the presence of the vehicle control (Mg^2+-free HB-PS) was set to 0% activation.
For the antagonist assessment, NR1/NR2A and NR1/NR2B was activated with the positive control agonist (100 μM Glutamic acid+20 μM Glycine). The ability of 2-CF3-DHE to inhibit the signal was examined after agonist stimulation and compared to the positive control antagonist (MK-801).

In data set [2] the test system is Purinergic (P2X1/P2X2/P2X3/P2X4/P2X7). The experiment in a line: Purinergic receptor QPatch patch clamp, agonist and antagonist modes. The data set is classed as cell-based, human. The following applies: agonist and antagonist modes at 3 and 10 μM. On the procedure: Human recombinant purinergic receptor expressing HEK293 cells were used and receptor activity was evaluated at room temperature using QPatch HT® (Sophion Bioscience A/S, Denmark) automatic parallel patch clamp system. 2CF3-DHE was evaluated in both agonist and antagonist modes at 3 and 10 μM. Each concentration was tested in triplicates.

Data set [3] concerns VIP/PACAP (PAC1/VPAC1/VPAC2). The experiment in a line: VIP/PACAP receptor Aequorin assays. The data set is classed as cell-based, human. On the procedure:
(§1) CHO-K1 cells coexpressing mitochondrial apoaequorin and the recombinant human receptor of interest were grown to mid-log phase in culture media without antibiotics and then detached with PBS-EDTA, centrifuged and resuspended in assay buffer (DMEM/HAM's F12 with HEPES, without phenol red+0.1% BSA, protease free) at a concentration of 1×10^6 cell/mL. Cells were incubated at room temperature for at least 4 hours with coelenterazine h. Reference agonist/antagonist was tested to evaluate the performance of the assay and to determine EC50/IC50.
(§2) 50 μL of the cell suspension was mixed with 50 μL of test or reference agonist in a 96-well plate. […] For antagonist testing, 100 μL of the reference agonist at its EC80 was injected on the mix of cells and test compound, following an incubation of 15 minutes after the first injection. The resulting emission of light was r recorded using Hamamatsu Functional Drug Screening System 6000 (FDSS 6000) luminometer. To standardize the emission of recorded light (and determine of the “100% signal”) across plates and across different experiments, some wells contained 100 μM digitonin or a saturating concentration of ATP (20 μM).

The next data set has as its system Somatostatin (SST1~SST5). The experiment in a line: Somatostatin receptor GTPγS assays. The data set is classed as biochemical, human. The procedure: Reagents used were the following: Assay buffer (20 mM HEPES, pH 7.4; 100 mM NaCl; 10 μg/mL saponin; 30 mM MgCl2); Membranes (recombinant human receptor membrane extracts were thawed on ice and diluted in assay buffer to give 1000 μg/mL ([…]) and kept on ice); GDP (diluted in assay buffer to give 30 μM solution (3 μM final concentration); beads (PVT-WGA (Amersham, RPNQ001), diluted in assay buffer at 25 mg/mL (0.25 mg/10 μL)); GTPγ^35S (Perkin Elmer, NEG030X), diluted in assay buffer to give 0.1 nM (final concentration); and ligand (agonist/antagonist diluted in assay buffer).
Membranes were mixed with GDP (1:1) and incubated for at least 15 minutes on ice. In parallel GTPγ^35S was mixed with the beads (1:1) just before starting the reaction. The following reagents were successively added in the wells of an Optiplate (Perkin Elmer): 50 μL test compound or reference ligand, 20 μL of the membranes:GDP mix (then 15 minute incubation for antagonist test), 10 μL of reference agonist at historical EC80 (for antagonist test) or 10 μL of assay buffer (for agonist test) and 20 μL of the GTPγ^35S:beads mix. […] The plates were then centrifuged for 10 minutes at 2000 rpm and incubated at room temperature for 1 hour and counted for 1 min/well with a Perkin Elmer TopCount reader.

The next data set deals with T2, OX1 (Homo sapiens, UniProt O43613).
T2 construct: expressed in transfected cells; host or cells: CHO-AEQ (CHO-K1 with mitochondrial apoaequorin)
The experiment in a line: Orexin receptor Aequorin assay. In kind it is cell-based. The settings on record: antagonism. On the procedure:
as §1, §2

In the next data set the target is T3, NK1 (Homo sapiens, UniProt P25103).
T3 construct: expressed in transfected cells; host or cells: CHO-AEQ (CHO-K1 with mitochondrial apoaequorin)
The experiment in a line: Neurokinin receptor Aequorin assay. In kind it is cell-based. The following applies: antagonism. The procedure: as §1, §2

Data set [4] in a line: Metabolism in human liver microsomes. The settings on record: 1 μM, 0.2 mg protein/mL. On the procedure: Metabolism of dihydroergotamine (DHE) and 2-CF3 DHE was evaluated in human liver microsomes. DHE mesylate and 2-CF3 DHE mesylate (1 μM each) were incubated separately with human liver microsomes (0.2 mg protein/mL) in triplicate at 37° C. in 0.2 mL (final volume) incubation buffer (50 mM potassium phosphate buffer, pH 7.4, 3 mM MgCl2 and 1 mM EDTA, pH7.4) with or without cofactor, NADPH-generating system. The NADPH-generating system consisted of 1 mM NADP, pH 7.4, 5 mM glucose-6-phosphate, pH 7.4 and 1 unit/mL glucose-6-phosphate dehydrogenase. DHE was added to the incubation mixtures in water. 2-CF3-DHE was added to incubation mixtures in 50:50 (v:v) acetonitrile:water. A low level of acetonitrile in the incubation was maintained to avoid any solvent effects on enzyme activity (typically at 0.5% or lower). Reactions were initiated by the addition of the NADPH-generating system and were terminated at 0, 15, 30 and 60 minutes after initiation by the addition of […], of stop reagent (acetonitrile) containing two internal standards (4′-hydroxydiclofenac-d4 and 1′-hydroxymidazolam-d4, 200 and 50 ng/mL in the final stopped incubation, respectively). The samples were then centrifuged and the supernatant fractions were analyzed by LC/MS/MS to quantify the formation of 8′-OH-DHE (metabolite) in the DHE samples and DHE and 8′-OH-DHE in the 2-CF3-DHE samples.
On the technique in general: Microsomes from liver hold many membrane-bound enzymes, among them those of drug oxidation.

Usually EC50 stands for the midpoint of the concentration-response curve. What is called IC50 is the point on the concentration scale where inhibition reaches its midpoint.

T1 sequence (P14416 whole entry): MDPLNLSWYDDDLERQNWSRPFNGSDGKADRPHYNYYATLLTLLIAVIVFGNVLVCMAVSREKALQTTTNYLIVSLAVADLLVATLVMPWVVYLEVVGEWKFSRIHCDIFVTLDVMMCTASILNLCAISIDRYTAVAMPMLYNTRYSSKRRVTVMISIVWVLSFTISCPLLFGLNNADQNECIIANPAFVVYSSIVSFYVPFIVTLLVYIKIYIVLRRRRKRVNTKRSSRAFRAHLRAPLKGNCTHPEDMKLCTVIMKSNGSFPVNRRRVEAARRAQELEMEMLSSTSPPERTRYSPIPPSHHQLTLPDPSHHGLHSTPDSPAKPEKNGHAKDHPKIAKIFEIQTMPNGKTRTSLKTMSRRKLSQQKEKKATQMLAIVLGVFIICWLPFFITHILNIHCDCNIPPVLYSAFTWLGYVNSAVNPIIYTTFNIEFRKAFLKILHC
T2 sequence (O43613 whole entry): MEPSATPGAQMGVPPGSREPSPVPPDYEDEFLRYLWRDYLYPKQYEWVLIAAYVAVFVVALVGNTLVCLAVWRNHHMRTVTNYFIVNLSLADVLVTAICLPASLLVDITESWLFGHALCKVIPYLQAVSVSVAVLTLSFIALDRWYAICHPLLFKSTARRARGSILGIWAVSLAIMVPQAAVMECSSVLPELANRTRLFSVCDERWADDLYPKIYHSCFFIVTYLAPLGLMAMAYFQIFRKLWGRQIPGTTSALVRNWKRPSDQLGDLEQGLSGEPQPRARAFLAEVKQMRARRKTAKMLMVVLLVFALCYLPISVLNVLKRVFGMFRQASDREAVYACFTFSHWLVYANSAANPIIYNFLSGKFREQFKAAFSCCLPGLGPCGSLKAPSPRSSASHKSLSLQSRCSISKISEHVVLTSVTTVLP
Sequence of human 5-HT1D receptor (P28221 whole entry): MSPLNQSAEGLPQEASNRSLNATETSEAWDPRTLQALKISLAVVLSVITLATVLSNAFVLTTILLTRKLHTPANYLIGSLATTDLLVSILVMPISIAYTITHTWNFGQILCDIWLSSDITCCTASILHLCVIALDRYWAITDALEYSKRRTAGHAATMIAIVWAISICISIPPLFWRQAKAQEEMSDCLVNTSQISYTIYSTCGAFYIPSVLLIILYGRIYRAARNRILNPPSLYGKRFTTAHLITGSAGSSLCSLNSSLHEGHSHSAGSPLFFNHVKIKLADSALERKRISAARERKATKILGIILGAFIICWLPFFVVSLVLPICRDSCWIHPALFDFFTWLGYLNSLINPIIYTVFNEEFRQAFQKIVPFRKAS
T3 sequence (P25103 whole entry): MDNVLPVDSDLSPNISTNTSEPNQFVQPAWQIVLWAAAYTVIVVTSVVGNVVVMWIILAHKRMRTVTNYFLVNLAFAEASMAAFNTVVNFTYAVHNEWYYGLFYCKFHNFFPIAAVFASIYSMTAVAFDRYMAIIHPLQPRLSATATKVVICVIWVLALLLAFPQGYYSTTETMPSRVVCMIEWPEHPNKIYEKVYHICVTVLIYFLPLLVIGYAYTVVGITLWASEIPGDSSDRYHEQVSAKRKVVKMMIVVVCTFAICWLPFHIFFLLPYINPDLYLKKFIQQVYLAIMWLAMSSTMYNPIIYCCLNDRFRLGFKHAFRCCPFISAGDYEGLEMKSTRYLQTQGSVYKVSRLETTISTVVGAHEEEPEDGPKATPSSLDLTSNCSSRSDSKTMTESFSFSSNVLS
Description for human 5-HT1D receptor: The mixture was shaken for 2 minutes prior to a 60 min incubation. It was then centrifuged for 10 minutes and counted for 1 minute with a Perkin Elmer TopCount reader. The resulting emission of light was recorded using a luminometer. Agonist percentage activation determinations were obtained by comparing with the Emax of the reference agonist α-methyl-5-HT.

Regarding `CN1C[C@H](C(=O)N[C@]2(C)O[C@@]3(O)[C@@H]4CCCN4C(=O)[C@H](Cc4ccccc4)N3C2=O)CC2c3cccc4[nH]c(C(F)(F)F)c(c34)CC21` (stereo partly shown) [2-CF3-dihydroergotamine], the EC50 on human 5-HT1D receptor came out at 13.6 nM; on D2 receptor it was 218 nM. In addition, the “Activity (Agonism: EC50; Antagonism: IC50)” value (in [1]; in data set [2]; in data set [3]; in the data set with Somatostatin (SST1~SST5)) was “Inactive” each time. For the same molecule, the concentration for half-maximal inhibition (IC50) at OX1 is above 10000 nM; at NK1, above 1000 nM. In addition, the “metabolism by human liver microsomes in the presence of NADPH” value in data set [4] (0 to 60 minutes) is listed as “extensively metabolized”. For the same molecule, the “intrinsic clearance, slower than that of DHE” value in data set [4] (with NADPH) is recorded as “about 85%”.
